# Patent US12097192B2 (Corcept Therapeutics Incorporated, priority 2019, dated 2024)
# What was measured:
# [1] = system: Cushing's syndrome patients; assay: Cushing's syndrome patient study: ECG; assay type: in vivo, human; details: All Subjects
# Excerpt: (§1) All patients gave informed consent before participating in any study-related procedures. […] The study protocol called for patient visits to the study site at screening, on Day 1 (baseline), Weeks 2, 4, 6, 8, 10, and 12, and after a 4-week follow-up period for Group 1. For Group 2, the protocol called for patient visits to the study site at screening, on Day 1 (baseline), Weeks 2, 4, 6, 8, 10, 12, 14, and 16, and after a 4-week follow-up period. Patient dosing will be done at home, except on days of study visits. […] The safety protocol also included assessments by physical examination findings, vital signs, ECG results, pregnancy tests, clinical laboratory test results (hematology and chemistry panels), adverse events (AEs), and concomitant medications. […] It ignores noncompliance, protocol deviations, withdrawal, and anything that happens after randomization. In contrast, per-protocol (PP) analysis refers to inclusion in the analysis of only those patients who strictly adhered to the protocol. The PP analysis provides an estimate of the true efficacy of an intervention, i.e., among those who completed the treatment as planned.
# [2] = system: Cushing's syndrome patients; assay: Cushing's syndrome patient study: liver function tests (ALT, AST); assay type: in vivo, human; details: All Subjects, mITT
# Excerpt: as §1
# [3] = system: other nuclear steroid hormone receptors; assay: Binding to other nuclear steroid hormone receptors
# [4] = system: Cushing's syndrome patients; assay: Cushing's syndrome patient study: POMC/proACTH and HPA axis; assay type: in vivo, human; details: for POMC and proACTH mean change from Baseline to Last Observed: All Subjects
# Excerpt: All patients gave informed consent before participating in any study-related procedures. […] The study protocol called for patient visits to the study site at screening, on Day 1 (baseline), Weeks 2, 4, 6, 8, 10, and 12, and after a 4-week follow-up period for Group 1. For Group 2, the protocol called for patient visits to the study site at screening, on Day 1 (baseline), Weeks 2, 4, 6, 8, 10, 12, 14, and 16, and after a 4-week follow-up period. Patient dosing will be done at home, except on days of study visits. […] It ignores noncompliance, protocol deviations, withdrawal, and anything that happens after randomization. In contrast, per-protocol (PP) analysis refers to inclusion in the analysis of only those patients who strictly adhered to the protocol. The PP analysis provides an estimate of the true efficacy of an intervention, i.e., among those who completed the treatment as planned.
# [5] = system: Cushing's syndrome patients; assay: Cushing's syndrome patient study: absolute eosinophils and lymphocytes; assay type: in vivo, human; details: All Subjects, mITT
# Excerpt: as §1
# [6] = system: Cushing's syndrome patients; assay: Cushing's syndrome patient study: hypertension response (24-hour ambulatory blood pressure); assay type: in vivo, human
# Protocol: (§2) All patients gave informed consent before participating in any study-related procedures.
# Response criteria for hyperglycemia were changes from baseline in glucose tolerance as measured by: ≥0.5% decrease in HbA1c, normalization or ≥50 mg/dL decrease in 2-hr OGTT glucose, or decrease in total daily insulin (≥25%) or sulfonylurea dose (≥50%). Response criteria for hypertension (HTN) was a ≥5 mm Hg decrease in mean systolic and/or diastolic blood pressure (SBP/DBP).
# Response was based on ≥0.5% reduction of HbA1c associated with reduction or discontinuation of diabetes medications or clinically significant reduction (≥50 mg/dL decrease) or normalisation of the 2-hour glucose measurement from an oral glucose tolerance test (OGTT).
# [7] = system: Cushing's syndrome patients; assay: Cushing's syndrome patient study: weight loss; assay type: in vivo, human
# Excerpt: as §2
# [8] = system: Cushing's syndrome patients; assay: Phase 2 CORT125134-451 study in Cushing syndrome: overall clinical efficacy; assay type: in vivo, human
# Protocol: All patients gave informed consent before participating in any study-related procedures. […] Response criteria for hyperglycemia were changes from baseline in glucose tolerance as measured by: ≥0.5% decrease in HbA1c, normalization or ≥50 mg/dL decrease in 2-hr OGTT glucose, or decrease in total daily insulin (≥25%) or sulfonylurea dose (≥50%). Response criteria for hypertension (HTN) was a ≥5 mm Hg decrease in mean systolic and/or diastolic blood pressure (SBP/DBP). […] The efficacy of the drug in Cushing syndrome was assessed based on the improvement of morbidities associated with excess cortisol activity, e.g. hyperglycaemia, hypertension, cognitive dysfunction, depression, poor quality of life, hypercoagulopathy and obesity. (A morbidity associated with excess cortisol, e.g., associated with hypercortisolemia, Cushing's syndrome, Cushing's disease, etc., is also termed a “comorbidity”.)
# [9] = Safety population, Group 1 (100-200 mg/day, 12 weeks)
# [10] = Safety population, Group 2 (250-400 mg/day, 16 weeks)
# [11] = mITT, Group 1 (100-200 mg/day, 12 weeks)
# [12] = mITT, Group 2 (250-400 mg/day, 16 weeks)
# [13] = Group 1 (100-200 mg/day, 12 weeks)
# [14] = Group 2 (250-400 mg/day, 16 weeks)
smiles,measurement,setting,value
"Cn1cc(S(=O)(=O)N2CCC3=Cc4c(cnn4-c4ccc(F)cc4)C[C@]3(C(=O)c3cc(C(F)(F)F)ccn3)C2)cn1 [relacorilant, (R)-(1-(4-fluorophenyl)-6-((1-methyl-1H-pyrazol-4-yl)sulfonyl)-4,4a,5,6,7,8-hexahydro-1H-pyrazolo[3,4-g]isoquinolin-4a-yl) (4-(trifluoromethyl)pyridin-2-yl)methanone]",ECG Median Heart Rate mean change from Baseline to Last Observed,[1]; [9],8 beats/min
same,"PR Interval, Aggregate mean change from Baseline to Last Observed",[1]; [9],2.72 ms
same,"QRS Duration, Aggregate mean change from Baseline to Last Observed",[1]; [9],-0.79 ms
same,"QT Interval, Aggregate mean change from Baseline to Last Observed",[1]; [9],-15.85 ms
same,"QTcB Interval, Aggregate mean change from Baseline to Last Observed",[1]; [9],5.58 ms
same,"QTcF Interval, Aggregate mean change from Baseline to Last Observed",[1]; [9],-1.98 ms
same,"RR Interval, Aggregate mean change from Baseline to Last Observed",[1]; [9],-93.14 ms
same,ECG Median Heart Rate mean change from Baseline to Last Observed,[1]; [10],5.23 beats/min
same,"PR Interval, Aggregate mean change from Baseline to Last Observed",[1]; [10],-4.2 ms
same,"QRS Duration, Aggregate mean change from Baseline to Last Observed",[1]; [10],-0.77 ms
same,"QT Interval, Aggregate mean change from Baseline to Last Observed",[1]; [10],-11.04 ms
same,"QTcB Interval, Aggregate mean change from Baseline to Last Observed",[1]; [10],2.28 ms
same,"QTcF Interval, Aggregate mean change from Baseline to Last Observed",[1]; [10],-2.54 ms
same,"RR Interval, Aggregate mean change from Baseline to Last Observed",[1]; [10],-56.67 ms
same,ECG Median Heart Rate mean change from Baseline to Last Observed,"[1]; Safety population, Overall",6.7 beats/min
same,"PR Interval, Aggregate mean change from Baseline to Last Observed","[1]; Safety population, Overall",-0.4 ms
same,"QRS Duration, Aggregate mean change from Baseline to Last Observed","[1]; Safety population, Overall",-0.78 ms
same,"QT Interval, Aggregate mean change from Baseline to Last Observed","[1]; Safety population, Overall",-13.6 ms
same,"QTcB Interval, Aggregate mean change from Baseline to Last Observed","[1]; Safety population, Overall",4.03 ms
same,"QTcF Interval, Aggregate mean change from Baseline to Last Observed","[1]; Safety population, Overall",-2.24 ms
same,"RR Interval, Aggregate mean change from Baseline to Last Observed","[1]; Safety population, Overall",-76.04 ms
same,ECG Median Heart Rate mean change from Baseline to Last Observed,[1]; [11],8 beats/min
same,"PR Interval, Aggregate mean change from Baseline to Last Observed",[1]; [11],2.72 ms
same,"QRS Duration, Aggregate mean change from Baseline to Last Observed",[1]; [11],-0.79 ms
same,"QT Interval, Aggregate mean change from Baseline to Last Observed",[1]; [11],-15.85 ms
same,"QTcB Interval, Aggregate mean change from Baseline to Last Observed",[1]; [11],5.58 ms
same,"QTcF Interval, Aggregate mean change from Baseline to Last Observed",[1]; [11],-1.98 ms
same,"RR Interval, Aggregate mean change from Baseline to Last Observed",[1]; [11],-93.14 ms
same,ECG Median Heart Rate mean change from Baseline to Last Observed,[1]; [12],5.23 beats/min
same,"PR Interval, Aggregate mean change from Baseline to Last Observed",[1]; [12],-4.2 ms
same,"QRS Duration, Aggregate mean change from Baseline to Last Observed",[1]; [12],-0.77 ms
same,"QT Interval, Aggregate mean change from Baseline to Last Observed",[1]; [12],-11.04 ms
same,"QTcB Interval, Aggregate mean change from Baseline to Last Observed",[1]; [12],2.28 ms
same,"QTcF Interval, Aggregate mean change from Baseline to Last Observed",[1]; [12],-2.54 ms
same,"RR Interval, Aggregate mean change from Baseline to Last Observed",[1]; [12],-56.67 ms
same,ECG Median Heart Rate mean change from Baseline to Last Observed,"[1]; mITT, Overall",6.7 beats/min
same,"PR Interval, Aggregate mean change from Baseline to Last Observed","[1]; mITT, Overall",-0.4 ms
same,"QRS Duration, Aggregate mean change from Baseline to Last Observed","[1]; mITT, Overall",-0.78 ms
same,"QT Interval, Aggregate mean change from Baseline to Last Observed","[1]; mITT, Overall",-13.6 ms
same,"QTcB Interval, Aggregate mean change from Baseline to Last Observed","[1]; mITT, Overall",4.03 ms
same,"QTcF Interval, Aggregate mean change from Baseline to Last Observed","[1]; mITT, Overall",-2.24 ms
same,"RR Interval, Aggregate mean change from Baseline to Last Observed","[1]; mITT, Overall",-76.04 ms
same,ALT (SGPT) mean change from Baseline to Last Observed,[2]; [13],−7.88 U/L
same,AST (SGOT) mean change from Baseline to Last Observed,[2]; [13],−2.71 U/L
same,ALT (SGPT) mean change from Baseline to Last Observed,[2]; [14],−13.35 U/L
same,AST (SGOT) mean change from Baseline to Last Observed,[2]; [14],−7.31 U/L
same,ALT (SGPT) mean change from Baseline to Last Observed,[2]; Overall,−10.62 U/L
same,AST (SGOT) mean change from Baseline to Last Observed,[2]; Overall,−4.94 U/L
same,binding to other nuclear steroid hormone receptors,[3],does not bind
same,POMC and proACTH mean change from Baseline to Last Observed,[4]; [12],7.91 pmol/L
same,POMC and proACTH mean change from Baseline to Last Observed,"[4]; mITT, Overall",7.91 pmol/L
same,POMC and proACTH mean change from Baseline to Last Observed,"[4]; mPP, Group 2 (250-400 mg/day, 16 weeks)",7.91 pmol/L
same,POMC and proACTH mean change from Baseline to Last Observed,"[4]; mPP, Overall",7.91 pmol/L
same,restoration of the suppressed HPA axis,[4]; patients with adrenal Cushing syndrome,half of the cases
same,Absolute Eosinophils mean change from Baseline to Last Observed,[5]; [13],0.05 10^{super 9
same,Absolute Lymphocytes mean change from Baseline to Last Observed,[5]; [13],−0.15 10^{super 9
same,Absolute Eosinophils mean change from Baseline to Last Observed,[5]; [14],0.05 10^{super 9
same,Absolute Lymphocytes mean change from Baseline to Last Observed,[5]; [14],0.26 10^{super 9
same,Absolute Eosinophils mean change from Baseline to Last Observed,[5]; Overall,0.05 10^{super 9
same,Absolute Lymphocytes mean change from Baseline to Last Observed,[5]; Overall,0.05 10^{super 9
same,hypertension response rate (≥5 mmHg reduction),"[6]; HD group (doses up to 400 mg daily), week 16",63.6%
same,hypertension response rate (≥5 mmHg reduction),"[6]; LD group (doses up to 200 mg daily), week 12",41.7%
same,nocturnal and daytime blood pressures,[6]; hypertension responders,clinically significant improvement
same,average weight loss,"[7]; doses up to 200 mg daily, within 3 months",2.2 kg
same,average weight loss,"[7]; doses up to 400 mg daily, within 3 months",5.1 kg
same,weight loss,[7]; many of the patients,Some weight loss
same,weight changes,"[7]; within 3 months, in half of the patients",significant weight changes
same,reduction of the effects of excess cortisol,[8]; Cushing's syndrome patients,effective in reducing many of the effects of excess cortisol
same,time to improvement in hyperglycaemia and hypertension,[8]; after achieving a therapeutic dose,within two weeks
same,clinical effect on hyperglycemia and hypertension,[8]; dosages up to 400 mg/day,clinical improvement in hyperglycemia and hypertension
same,"secondary endpoints: hypercoagulopathy, liver function, serum osteocalcin, cognitive function, depression, quality of life",[8]; high-dose group,statistically significant improvements
same,efficacy relative to previous metyrapone therapy (primary and secondary endpoints),[8]; two patients treated previously with metyrapone,higher efficacy
